In US20100137226A1, “FATIGUE-REDUCING AGENT” (KYOWA HAKKO BIO CO., LTD, priority 2006, published 2010):
Read-outs that look alike come from different tables or passages of the source.

Test system: SD male rats bred under water immersion
Conditions: swim with burden of ca. 8% of body weight, n=4, FIG. 1

Row | Structure (SMILES) | swimming time (time until the tip of nose was submerged in water for 10 seconds or more) (reduced glutathione 800 mg/kg body weight orally once a day for 5 days of water immersion breeding) | swimming time (time until the tip of nose was submerged in water for 10 seconds or more) (ornithine 1000 mg/kg body weight orally once a day for 5 days of water immersion breeding)
1 | N[C@@H](CCC(=O)N[C@@H](CS)C(=O)NCC(=O)O)C(=O)O [glutathione, reduced glutathione] | no change was recognized | –
2 | Cl.NCCC[C@H](N)C(=O)O [ornithine, L-ornithine hydrochloride] | – | recovery of the swimming time was recognized
